“And” between values parts separate entries of the source, which are not always exact repeats. Identical values can stand only once.
What was measured:
[1] = system: Apoprotein E deficient mice; experiment: Plasma lipid analysis using an autoanalyzer (TC, Trigs, PL, FC, CE by calculation); type: in vivo; set-up: TC, plasma / FC, plasma / CE, plasma / Trigs, plasma / PL, plasma / TC / FC / CE / Trigs / PL: unit not given here; settings: for PL: plasma phospholipid; for TC: plasma total cholesterol; for Trigs: plasma triglycerides
From the text: (§1) Apoprotein E deficient mice (Jackson Laboratories, 600 Main Street, Bar Harbor, Me.) were used in this study. The mice were male, 7-8 weeks of age, and between 18-20 g in weight. An initial total cholesterol measurement was made on 30 mice, and the mice were grouped into two groups of 15 to match the total cholesterol measurements. Both groups were fed a “western diet” (40 kcal % butterfat, 0.15% [wt/wt] cholesterol, Harlan Teklad diet TD-88137). Starting at t=0, the control group of 15 mice received vehicle only (phosphate buffered saline at pH 7.4), while the test group of 15 mice received aromatic-cationic peptide reconstituted in phosphate buffered saline. Body weights of the mice were recorded weekly, and mortality checks were performed daily.
(§2) The aromatic-cationic peptide D-Arg-2′6′-Dmt-Lys-Phe-NH2 (sterile lyophilized powder, reconstituted in phosphate buffered saline) was tested. For the 12-week study, test mice received a single, daily dose of the peptide, subcutaneously at 1 mg/kg. Control mice received a single daily dose of vehicle.
(§3) Experimental Protocol/Data Collection. Blood was collected every four weeks (orbital plexis) under isoflurane anesthesia (3%) and blood lipids were determined. Plasma lipid analysis was conducted for both groups at t=0, 4, […], 8, and 12 weeks. Plasma lipid analysis using an autoanalyzer included total cholesterol (TC), triglycerides (Trigs), phospholipids (PL), free cholesterol (FC), and cholesterol ester (CE, by calculation). Gel electrophoresis was used to measure levels of high-density lipoprotein cholesterol (HDL-C), low-density lipoprotein cholesterol (LDL-C), and very low-density lipoprotein cholesterol (VLDL-C).

[2] = system: Apoprotein E deficient mice; experiment: Plasma lipoprotein cholesterol by gel electrophoresis (Spife; HDL-C, LDL-C, VLDL-C); type: in vivo; settings: for HDL-C / LDL-C / VLDL-C: plasma, Spife (electrophoresis)
From the text: as §1, §2, §3

Human skin fibroblasts = experiment: Coenzyme Q10 levels in fibroblasts treated with peptide; type: cell-based; settings: 10 nM peptide, 16-24 hours or 5 days, versus saline treated fibroblasts; listed as aromatic-cationic peptide
Experimental: Fibroblasts were treated with an aromatic-cationic peptide of the present disclosure, and levels of coenzyme Q10 were evaluated.
Human skin fibroblasts from normal subjects were incubated under standard tissue culture medium containing high glucose levels to support anaerobic conditions. At approximately 90% confluence, cells were incubated in the presence of 10 nM D-Arg-2′6′-Dmt-Lys-Phe-NH2 for a period of either one day (24 h) or five days as shown in Table 11 below. The culture medium was not changed during the incubation period. Cells were harvested and the cellular level of CoQ was determined using methods known in the art. Data represents the average n=3-6.

[3] = week 8, individual test mouse (sample #16-30), listed as aromatic-cationic peptide
[4] = week 12, AVE of 15 test animals
[5] = week 12, individual test mouse (sample #16-30), listed as aromatic-cationic peptide
[6] = week 4, individual test mouse (sample #16-30), listed as aromatic-cationic peptide
[7] = Week 0 (t=0, start of dosing), individual mouse of test group
[8] = Week 0, group average of test group
[9] = at 4, 8 and 12 week time points, versus vehicle

For D-Arg-2′6′-Dmt-Lys-Phe-NH2, the PL ([1]; week 8, AVE of 15 test animals) was 493, the PL [1, 3] was 416 and 456 and 474 and 448 and 516 (2×) and 424 and 480 and 488 and 436 and 440 and 556 and 470 and 540 and 728 and the PL [1, 4] was 434. The PL [1, 5] was 366 and 318 and 320 and 432 and 491 and 321 and 363 and 394 and 374 and 423 and 536 and 521 and 340 and 575 and 741, the TC ([1]; week 4, AVE of 15 test animals) was 997 and the TC [1, 6] was 799 and 924 and 976 and 1139 and 1038 and 673 and 940 and 1046 and 835 and 822 and 1026 and 1223 and 935 and 1248 and 1337. The TC ([1]; week 8, AVE of 15 test animals) was 1282, the TC [1, 3] was 1262 and 1004 and 1505 and 1183 and 1545 and 943 and 1008 and 1473 and 1023 and 956 and 1435 and 1414 and 1147 and 1534 and 1797 and the TC [1, 4] was 1003. For the same substance, the TC [1, 5] was 898 and 540 and 884 and 937 and 1420 and 719 and 674 and 745 and 990 and 999 and 1379 and 1255 and 558 and 1317 and 1736, the Trigs ([1]; week 4, AVE of 15 test animals) was 58 and the Trigs [1, 6] was 18 (2×) and 39 and 28 and 85 and 59 (2×) and 46 and 108 and 33 and 44 (2×) and 67 and 80 and 144. The Trigs ([1]; week 8, AVE of 15 test animals) was 57, the Trigs [1, 3] was 34 (3×) and 31 (2×) and 51 (2×) and 48 and 53 and 43 and 75 and 63 and 39 and 67 and 195 and the Trigs [1, 4] was 55. The Trigs [1, 5] was 27 and 49 and 10 and 37 (2×) and 18 and 39 (2×) and 13 and 25 and 74 and 89 and 97 and 112 and 158, the “HDL-C, plasma” value [2, 7] was 19 mg/dL and 34 mg/dL and 32 mg/dL and 37 mg/dL and 35 mg/dL and 21 mg/dL and 38 mg/dL and 41 mg/dL and 6 mg/dL and 31 mg/dL and 26 mg/dL and 39 mg/dL and 22 mg/dL and 29 mg/dL and 8 mg/dL and the “LDL-C, plasma” value [2, 7] was 258 mg/dL and 260 mg/dL and 307 mg/dL and 245 mg/dL and 268 mg/dL and 295 mg/dL and 304 mg/dL and 474 mg/dL and 287 mg/dL and 352 mg/dL and 380 mg/dL and 481 mg/dL and 410 mg/dL and 432 mg/dL and 773 mg/dL. For the same substance, the “VLDL-C, plasma” value [2, 7] was 25 mg/dL (2×) and 23 mg/dL and 37 mg/dL and 20 mg/dL (2×) and 19 mg/dL and 27 mg/dL and 36 mg/dL and 15 mg/dL and 26 mg/dL and 31 mg/dL and 24 mg/dL and 28 mg/dL and 29 mg/dL, the “HDL-C, plasma, AVE” value [2, 8] was 28 mg/dL and the “LDL-C, plasma, AVE” value [2, 8] was 368 mg/dL. For the same substance, the “VLDL-C, plasma, AVE” value [2, 8] was 26 mg/dL, the “plasma LDL-C, in words” value [2, 9] was “reduces” and the “plasma VLDL-C, in words” value [2, 9] was “reduces”. It also gave an HDL-C ([2]; week 4, AVE of 15 test animals) of 25 mg/dL, an LDL-C ([2]; week 4, AVE of 15 test animals) of 940 mg/dL and a VLDL-C ([2]; week 4, AVE of 15 test animals) of 33 mg/dL. For the same substance, the HDL-C [2, 6] was 18 mg/dL and 20 mg/dL (3×) and 0 mg/dL and 13 mg/dL and 7 mg/dL and 23 mg/dL and 32 mg/dL (3×) and 15 mg/dL and 45 mg/dL and 44 mg/dL and 49 mg/dL, the LDL-C [2, 6] was 745 mg/dL and 866 mg/dL and 918 mg/dL and 1120 mg/dL and 982 mg/dL and 648 mg/dL and 893 mg/dL and 975 mg/dL and 770 mg/dL and 766 mg/dL and 966 mg/dL and 1147 mg/dL and 874 mg/dL and 1171 mg/dL and 1254 mg/dL and the VLDL-C [2, 6] was 35 mg/dL (2×) and 37 mg/dL (2×) and 19 mg/dL and 44 mg/dL (2×) and 18 mg/dL and 23 mg/dL and 39 mg/dL and 41 mg/dL and 28 mg/dL and 31 mg/dL and 30 mg/dL and 32 mg/dL. For the same substance, the HDL-C ([2]; week 8, AVE of 15 test animals) was 32 mg/dL, the LDL-C ([2]; week 8, AVE of 15 test animals) was 1166 mg/dL and the VLDL-C ([2]; week 8, AVE of 15 test animals) was 84 mg/dL. For the same substance, the HDL-C [2, 3] was 42 mg/dL and 34 mg/dL and 27 mg/dL and 33 mg/dL and 19 mg/dL (2×) and 8 mg/dL and 45 mg/dL and 16 mg/dL and 32 mg/dL and 41 mg/dL (2×) and 25 mg/dL and 43 mg/dL and 57 mg/dL, the LDL-C [2, 3] was 1119 mg/dL and 897 mg/dL and 1392 mg/dL and 1071 mg/dL and 1415 mg/dL and 901 mg/dL and 875 mg/dL and 1378 mg/dL and 922 mg/dL and 856 mg/dL and 1317 mg/dL and 1320 mg/dL and 1025 mg/dL and 1382 mg/dL and 1621 mg/dL and the VLDL-C [2, 3] was 101 mg/dL and 73 mg/dL and 86 mg/dL and 79 mg/dL (2×) and 112 mg/dL and 34 mg/dL and 88 mg/dL and 69 mg/dL and 59 mg/dL and 93 mg/dL and 74 mg/dL and 80 mg/dL and 109 mg/dL and 119 mg/dL. The “HDL-C” value [2, 4] was 21 mg/dL, the LDL-C [2, 4] was 939 mg/dL and the VLDL-C [2, 4] was 44 mg/dL. For the same substance, the “HDL-C” value [2, 5] was 38 mg/dL and 20 mg/dL (2×) and 10 mg/dL and 41 mg/dL and 21 mg/dL and 5 mg/dL and 31 mg/dL (2×) and 2 mg/dL (2×) and 40 mg/dL and 28 mg/dL and 1 mg/dL and 23 mg/dL, the LDL-C [2, 5] was 821 mg/dL and 485 mg/dL and 854 mg/dL and 852 mg/dL and 1328 mg/dL and 693 mg/dL and 611 mg/dL and 692 mg/dL and 962 mg/dL and 896 mg/dL and 1275 mg/dL and 1218 mg/dL and 505 mg/dL and 1203 mg/dL and 1688 mg/dL and the VLDL-C [2, 5] was 39 mg/dL and 35 mg/dL and 21 mg/dL (2×) and 43 mg/dL and 71 mg/dL and 32 mg/dL and 33 mg/dL and 26 mg/dL and 63 mg/dL and 76 mg/dL and 36 mg/dL and 30 mg/dL and 83 mg/dL and 46 mg/dL. The “coenzyme Q10 levels in fibroblast cells, in words” value (Human skin fibroblasts) was “increased”.
